According to patent US20240325382A1, “COMPOSITIONS AND METHODS FOR TREATING ANEMIA ASSOCIATED WITH A RIBOSOMAL DISORDER” (Disc Medicine, Inc., priority 2021, published 2024):
“Also recorded” adds a separate entry of the source.

Columns and labels:
Assay type in all cases: cell-based
TF-1 cells [1] = assay: Cell growth of TF-1 stable lines by cell counting with trypan blue staining; conditions: 6 days of culture with doxycycline; for growth inhibition (cell count): EPO; for effect on cell proliferation (cell count) compared to scrambled shRNA: GMCSF (2 ng/ml)
From the text: RPS19 knockdown in TF-1 cells has been previously reported to adversely affect the growth of erythroid cells due to an imbalance in heme and globin synthesis. See, e.g., Yang, Z. et al. Sci Transl Med 8, 338ra67 (2016). The TF-1 cell line is a cell line of immature erythroid origin that requires cytokines such as granulocyte-macrophage colony-stimulating factor (GMCSF) or erythropoietin (EPO) for its growth. The cell growth capability of TF-1 stable lines shRNA #a, shRNA #b, and scrambled shRNA were assessed in vitro by cell counting after 6-days of cell culture in the presence of doxycycline induction. Cells were washed from regular growth media and seeded in equal numbers into media containing either GMCSF (2 ng/ml), a growth factor that induces proliferation of the TF-1 cells, or EPO (Ing/ml), a hormone that induces growth of the TF-1 cells and induces their differentiation along the erythroid lineage. Cell growth was monitored by counting cells with trypan blue staining (FIG. 3A and FIG. 3B).

RPS19 protein = RPS19 protein levels by western blot in TF-1 stable cell lines; conditions: TF-1 stable line, doxycycline-induced shRNA, by day 5
Description: To generate an RPS19 deficient Diamond blackfan anemia (DBA) model, a TF-1 erythroid cell line was transduced with lentivirus encoding shRNAs targeting RPS19 (referred to as “shRNA #a” and “shRNA #b”) and a scrambled shRNA control (referred to as “Scramble shRNA” or “Scrambled”) (See Table 1). Stable cell lines were generated by selecting the infected cells with puromycin (1 ug/ml) for three weeks. The shRNA expression is doxycycline inducible. In the stable cell lines, RPS19 mRNA expression was measured using qRT-PCR after two (FIG. 1A) and four (FIG. 1B) days of doxycycline treatment. […] Further, RPS19 protein levels were decreased by more than 70% by shRNA #b by day 5 (FIG. 2A and FIG. 2B). The antibodies used in determining the RPS19 protein levels are described in Table 1.

TF-1 cells [2] = assay: Cell viability of TF-1 stable lines by CellTiter-Glo (CTG); conditions: GMCSF and EPO stimulus, doxycycline, 96-well plates
Description: Similarly, the cell growth capability of TF-1 stable lines shRNA #a, shRNA #b, and scrambled shRNA was assessed in vitro by cell viability assay. As described above, washed cells were seeded into 96 well plates in equal numbers in media containing either GMCSF or EPO (FIG. 4A and FIG. 4B) on separate plates for each day of readout. Cell viability was measured using the CellTiter-Glo® (CTG), which determines the number of viable cells in culture by quantifying ATP, which indicates the presence of metabolically active cells.

[3] = test system: TF-1 cells expressing scrambled shRNA; assay: Cell number after bitopertin treatment, scrambled shRNA TF-1 cells; conditions: 4 nM or 37 nM bitopertin, 2 days (day 4 to day 6), doxycycline and GMCSF
Description: (§1) Prior to treatment with bitopertin, the TF-1/shRNA #a cells were treated with doxycycline for 4 days to induce RPS19 knockdown by shRNA #a. TF-1/scramble shRNA cells were treated similarly as an experimental control. On day 4, both TF-1/shRNA #a and TF-1/scramble shRNA cells were seeded to the 12-well cell culture plates at a density of 1×10^5 cells per well. Bitopertin was added to the cells in 12-well plates for 48 hours of treatment from day 4 to day 6. […] Each of the TF-1 cells were also treated with doxycycline and GMCSF, which induces shRNA expression and stimulates proliferation, for the entirety of the experiment.
(§2) We investigated if blocking the uptake of heme biosynthesis pathway precursor glycine into cells with bitopertin could restore the balance between heme and globin and reverse the anti-proliferative effects caused by RPS19 knockdown. To test this hypothesis, similarly as above, washed cells were seeded in 6-well plates with doxycycline and GMSCSF to induce shRNA expression and cell proliferation for four days. On day 4, 1×10^5 cells were seeded into a 12-well plate with 4 nM or 37 nM bitopertin. After two days of treatment with bitopertin, we enumerated cell numbers.

TF-1/shRNA #b cells = assay: CTG cell viability after bitopertin treatment, RPS19 knockdown TF-1 cells; conditions: varying doses, 1 μM top concentration, 9 points 3-fold dilutions, 2 days, doxycycline and GMCSF
Description: The cells were treated with (1) doxycycline during the entire cell culture period to induce shRNA expression; (2) GMCSF during the entire 6 days of cell culture period to induce proliferation. At day 4 of cell culture, the TF-1 cells were seeded to the 96-well cell culture plates at a density of 1×10^4 cells per well, and were treated with varying doses of bitopertin for two days of the culture period, from day 4 to day 6.
Further, in a similar setup, an equal number of cells were seeded on to 96-well plates after four days of doxycycline treatment and incubated with varying doses of bitopertin (1 μM top concentration, 9 points 3-fold dilutions) for two days and on day 6, we performed a CTG assay to measure the cell viability. The cells were cultured in the presence of GMCSF during the entire cell culture period.

TF-1 shRNA #a cells = assay: Cell number after bitopertin treatment, RPS19 knockdown TF-1 cells; conditions: 4 nM or 37 nM bitopertin, 2 days (day 4 to day 6), doxycycline and GMCSF
Description: as §1, §2

| Compound | growth inhibition (cell count) (TF-1 cells [1]) | effect on cell proliferation (cell count) compared to scrambled shRNA (TF-1 cells [1]) | decrease of RPS19 protein levels (RPS19 protein) | cell growth inhibition (CTG cell viability) compared to scrambled shRNA (TF-1 cells [2]) | effect on cell number of scrambled shRNA cells [3] | effect on cell viability (CTG) compared to TF-1/scrambled shRNA cells (TF-1/shRNA #b cells) | effect on cell number of RPS19 knockdown cells (TF-1 shRNA #a cells) |
| --- | --- | --- | --- | --- | --- | --- | --- |
| shRNA #b: lentivirus-encoded, doxycycline-inducible shRNA targeting RPS19, GCTTGCTCCCTACGATGAGAA (SEQ ID NO: 2) | dose-dependent growth inhibition | more substantial effect | more than 70% | high degree inhibition in cell growth |  |  |  |
| C[C@H](Oc1ccc(S(C)(=O)=O)cc1C(=O)N1CCN(c2ncc(C(F)(F)F)cc2F)CC1)C(F)(F)F [bitopertin] |  |  |  |  | did not affect | dose-dependent bitopertin protective effect | reverses the anti-proliferative effects; also recorded: protective effect |
| shRNA #a: lentivirus-encoded, doxycycline-inducible shRNA targeting RPS19, GAGATCTGGACAGAATCGC (SEQ ID NO: 1) | dose-dependent growth inhibition | moderate effect |  | moderate cell growth inhibitory effects |  |  |  |
